Common to all, as to format: in vivo
One test concerns Sphaerotheca fuliginea. Put plainly: Control test to powdery mildew of cucumber (foliar and soil treatment). The following applies: for Foliar Treatment, Curative Effect / Foliar Treatment, Protective Effect / Soil Treatment, Protective Effect: index 0-10; for Protective Index, Foliar Treatment / Protective Index, Soil Treatment: 14 days. As for the experimental part: (1) Seeds of cucumber (Cultivar: Matsukaze) were sown in a pot of 9 cm in diameter and the pots were kept in a green house until the plant was grown for 2-3 leaf stage. The first leaf was sprayed with, (i) 3 ml each of solutions containing the test compound at the prescribed concetrations and dried by the air (foliar treatment). Inoculation of spore suspension of Sphaerotheca fuliginea by spraying was practised 2 days before the treatment (curative effect) or 1 day after the treatment (protective effect). Alternatively, (ii) 5 ml of the solution was applied at the root of the seedlings (soil treatment). The pots were kept in a greenhouse for 2 days and inoculation was practised in the same manner noted above. (iii) After sprayed with 3 ml of a solution of the test compound at a concentration of 125 ppm and dried by the air, the treated pots were set in a greenhouse. Untreated pots were placed next to the treated pots. Those treated and untreated plants were inoculated with spore suspension. Protective effect of the test compounds by vapor was thus checked. The effect was examined 14 days after the inoculation of the spores.
0: Disease sign is observed on the whole leaf.
3: Disease sign is observed on the leaf in about 50%.
5: Disease sign is observed on the leaf in about 30%.
7: Disease sign is observed on the leaf in about 20%.
9: a little disease sign is observed.
(§1) (1) Test methods and evaluation are the same as those in Tests 2, 4 and 6.

The test system of another test is Botrytis cinerea. Briefly: Control test of Botrytis rot (gray mold) of cucumber. As for the experimental part:
(1) Seedlings of cucumber (Cultivar: Matsukaze) were planted in a pot of 9 cm in diameter. The first leaf was sprayed with 3 ml each of solutions containing the test compound at the concentration of 125 or 31.3 ppm and the plant was dried by the air. After inoculation of the spores of Botrytis cinerea, the plants were kept at 20°±2° C. and 90-100% humidity ((i) protective spraying). Alternatively, the spores were inoculated at first and when the leaves suffered a little (about 2 days after), the solutions of the test compounds were sprayed ((ii) curative spraying). Evaluation was practised 3 days after the inoculation. Percent disease control was calculated by the ratio of diameter of diseased area in treated and untreated plants.
as §1

The test system of a further test is Sclerotinia sclerotiorum. Briefly: Control test to Sclerotinia rot of cucumber. From the text:
(1) This test was practised in the same manner as in the above test, control test of Botrytis rot (gray mold) of cucumber, except for using the mycelium of Sclerotinia sclerotiorum as inoculm. The same as in test 2.

Structures are written as SMILES.

Consider `O[C@@]1(c2ccc(Cl)cc2)CCCCC[C@H]1n1ccnc1` (relative stereo) [Compound 27], for which the “Foliar Treatment, Curative Effect” value in the test with Sphaerotheca fuliginea (second Table 4, 0.5 ppm) was 0; with Sphaerotheca fuliginea (second Table 4, 2.0 ppm), 5 (Disease sign is observed on the leaf in about 30%.); in the test on Sphaerotheca fuliginea (second Table 4, 7.8 ppm) it was 10; with Sphaerotheca fuliginea (second Table 4, 31.3 ppm), 10. For the same compound, the “Foliar Treatment, Protective Effect” value was 0 with Sphaerotheca fuliginea (second Table 4, 0.5 ppm); 3 (Disease sign is observed on the leaf in about 50%.) in the test on Sphaerotheca fuliginea (second Table 4, 2.0 ppm); 9 with Sphaerotheca fuliginea (second Table 4, 7.8 ppm); 10 in the test with Sphaerotheca fuliginea (second Table 4, 31.3 ppm).

With `O[C@@]1(c2ccc(Cl)c(Cl)c2)CCCCC[C@H]1n1cncn1` (relative stereo) [Compound 34], the “Foliar Treatment, Curative Effect” value is 5 (Disease sign is observed on the leaf in about 30%.) in the test with Sphaerotheca fuliginea (second Table 4, 0.5 ppm); 10 with Sphaerotheca fuliginea (second Table 4, 2.0 ppm); 10 with Sphaerotheca fuliginea (second Table 4, 7.8 ppm); 10 with Sphaerotheca fuliginea (second Table 4, 31.3 ppm). In addition, the “Foliar Treatment, Protective Effect” value is 0 in the test with Sphaerotheca fuliginea (second Table 4, 0.5 ppm); 0 in the test on Sphaerotheca fuliginea (second Table 4, 2.0 ppm); 9 in the test with Sphaerotheca fuliginea (second Table 4, 7.8 ppm); 10 with Sphaerotheca fuliginea (second Table 4, 31.3 ppm). In addition, the “Soil Treatment, Protective Effect” value stood at 0 in the test on Sphaerotheca fuliginea (second Table 4, 0.5 ppm); 0 in the test on Sphaerotheca fuliginea (second Table 4, 2.0 ppm); 0 with Sphaerotheca fuliginea (second Table 4, 7.8 ppm); 0 in the test on Sphaerotheca fuliginea (second Table 4, 31.3 ppm).

In the case of `CC(C)NC(=O)N1CC(=O)N(c2cc(Cl)cc(Cl)c2)C1=O` [Iprodione, reference compound], the “Percent Disease Control, Curative Spraying” value with Botrytis cinerea (Table 2, 31.3 ppm) amounted to 64%; in the test on Botrytis cinerea (Table 2, 125 ppm), 90%; in the test with Sclerotinia sclerotiorum (31.3 ppm), 77%; with Sclerotinia sclerotiorum (125 ppm) it was 90%. Also, the “Percent Disease Control, Protective Spraying” value came out at 100% with Botrytis cinerea (Table 2, 31.3 ppm); 100% in the test with Botrytis cinerea (Table 2, 125 ppm); 100% with Sclerotinia sclerotiorum (31.3 ppm); 100% in the test with Sclerotinia sclerotiorum (125 ppm).

For the compound `O[C@@]1(Cc2ccc(Cl)cc2)CCCCC[C@H]1n1cncn1` (relative stereo) [Compound 5, cis-1-(4-chlorobenzyl)-2-(1,2,4-triazol-1-yl)cycloheptanol], in the test on Sphaerotheca fuliginea (first Table 4, 125 ppm), the “Protective Index, Foliar Treatment” value came to 10 and the “Protective Index, Soil Treatment” value is given as 3 (Disease sign is observed on the leaf in about 50%.).

On to `O[C@@]1(c2ccc(Cl)cc2)CCCC[C@H]1n1ccnc1` (relative stereo) [Compound 26], for which the “Foliar Treatment, Curative Effect” value in the test with Sphaerotheca fuliginea (second Table 4, 0.5 ppm) is 0; in the test on Sphaerotheca fuliginea (second Table 4, 2.0 ppm), 7 (Disease sign is observed on the leaf in about 20%.); in the test on Sphaerotheca fuliginea (second Table 4, 7.8 ppm), 9; in the test with Sphaerotheca fuliginea (second Table 4, 31.3 ppm) it was 10. The “Foliar Treatment, Protective Effect” value is on record as 0 in the test with Sphaerotheca fuliginea (second Table 4, 0.5 ppm); 3 (Disease sign is observed on the leaf in about 50%.) in the test on Sphaerotheca fuliginea (second Table 4, 2.0 ppm); 9 in the test with Sphaerotheca fuliginea (second Table 4, 7.8 ppm); 10 in the test on Sphaerotheca fuliginea (second Table 4, 31.3 ppm).

Turning to `O[C@@]1(c2cccc(Cl)c2)CCCC[C@H]1n1cncn1` (relative stereo) [Compound 31], the “Foliar Treatment, Curative Effect” value in the test on Sphaerotheca fuliginea (second Table 4, 0.5 ppm) was 3 (Disease sign is observed on the leaf in about 50%.); with Sphaerotheca fuliginea (second Table 4, 2.0 ppm) it was 9; in the test with Sphaerotheca fuliginea (second Table 4, 7.8 ppm), 10; in the test on Sphaerotheca fuliginea (second Table 4, 31.3 ppm) it was 10. Also, the “Foliar Treatment, Protective Effect” value with Sphaerotheca fuliginea (second Table 4, 0.5 ppm) is 0; in the test with Sphaerotheca fuliginea (second Table 4, 2.0 ppm), 0; with Sphaerotheca fuliginea (second Table 4, 7.8 ppm), 9; in the test with Sphaerotheca fuliginea (second Table 4, 31.3 ppm), 10.

In the case of `O[C@@]1(c2ccc(F)cc2)CCCC[C@H]1n1ccnc1` (relative stereo) [Compound 29], the “Foliar Treatment, Curative Effect” value in the test on Sphaerotheca fuliginea (second Table 4, 0.5 ppm) is given as 0; in the test with Sphaerotheca fuliginea (second Table 4, 2.0 ppm) it was 3 (Disease sign is observed on the leaf in about 50%.); with Sphaerotheca fuliginea (second Table 4, 7.8 ppm) it was 9; in the test with Sphaerotheca fuliginea (second Table 4, 31.3 ppm) it was 10. In addition, the “Foliar Treatment, Protective Effect” value in the test on Sphaerotheca fuliginea (second Table 4, 0.5 ppm) is on record as 0; in the test with Sphaerotheca fuliginea (second Table 4, 2.0 ppm), 3 (Disease sign is observed on the leaf in about 50%.); in the test with Sphaerotheca fuliginea (second Table 4, 7.8 ppm) it was 9; in the test with Sphaerotheca fuliginea (second Table 4, 31.3 ppm) it was 10.

On to `Cc1ccc2nc3sc(=O)sc3nc2c1` [Chinomethionat, reference compound], for which the “Protective Index, Foliar Treatment” value in the test on Sphaerotheca fuliginea (first Table 4, 125 ppm) was determined as 10.

`O[C@@]1(c2cccs2)CCCC[C@H]1n1ccnc1` (relative stereo) [Compound 6, cis-1-(2-thienyl)-2-imidazolylcyclohexanol]: in the test on Sphaerotheca fuliginea (first Table 4, 125 ppm), the “Protective Index, Foliar Treatment” value turned out to be 10 and the “Protective Index, Soil Treatment” value worked out at 0.

In the case of `O[C@@]1(c2cc(Cl)ccc2Cl)CCCC[C@H]1n1cncn1` (relative stereo) [Compound 35], the “Foliar Treatment, Curative Effect” value with Sphaerotheca fuliginea (second Table 4, 0.5 ppm) is 10; with Sphaerotheca fuliginea (second Table 4, 2.0 ppm), 10; with Sphaerotheca fuliginea (second Table 4, 7.8 ppm), 10; in the test on Sphaerotheca fuliginea (second Table 4, 31.3 ppm), 10. Also, the “Foliar Treatment, Protective Effect” value in the test on Sphaerotheca fuliginea (second Table 4, 0.5 ppm) is given as 5 (Disease sign is observed on the leaf in about 30%.); in the test on Sphaerotheca fuliginea (second Table 4, 2.0 ppm), 10; with Sphaerotheca fuliginea (second Table 4, 7.8 ppm), 10; in the test on Sphaerotheca fuliginea (second Table 4, 31.3 ppm), 10. Also, the “Soil Treatment, Protective Effect” value is given as 0 in the test on Sphaerotheca fuliginea (second Table 4, 0.5 ppm); 0 in the test on Sphaerotheca fuliginea (second Table 4, 2.0 ppm); 9 with Sphaerotheca fuliginea (second Table 4, 7.8 ppm); 10 in the test on Sphaerotheca fuliginea (second Table 4, 31.3 ppm).

For the compound `O[C@@]1(c2ccc(F)cc2)CCCCC[C@H]1n1ccnc1` (relative stereo) [Compound 23], the “Foliar Treatment, Curative Effect” value is 0 in the test on Sphaerotheca fuliginea (second Table 4, 0.5 ppm); 3 (Disease sign is observed on the leaf in about 50%.) in the test with Sphaerotheca fuliginea (second Table 4, 2.0 ppm); 10 with Sphaerotheca fuliginea (second Table 4, 7.8 ppm); 10 in the test on Sphaerotheca fuliginea (second Table 4, 31.3 ppm). Also, the “Foliar Treatment, Protective Effect” value is 0 in the test with Sphaerotheca fuliginea (second Table 4, 0.5 ppm); 5 (Disease sign is observed on the leaf in about 30%.) with Sphaerotheca fuliginea (second Table 4, 2.0 ppm); 10 in the test with Sphaerotheca fuliginea (second Table 4, 7.8 ppm); 10 with Sphaerotheca fuliginea (second Table 4, 31.3 ppm).

Consider `CCCCc1c(C)nc(N(C)C)nc1O` [Dimethirimol, reference compound], for which the “Protective Index, Soil Treatment” value with Sphaerotheca fuliginea (first Table 4, 500 ppm) is recorded as 5 (Disease sign is observed on the leaf in about 30%.).

`O[C@@]1(c2ccc(Cl)c(Cl)c2)CCCC[C@H]1n1cncn1` (relative stereo) [Compound 33]: the “Foliar Treatment, Curative Effect” value in the test with Sphaerotheca fuliginea (second Table 4, 0.5 ppm) is reported as 3 (Disease sign is observed on the leaf in about 50%.); in the test on Sphaerotheca fuliginea (second Table 4, 2.0 ppm), 10; with Sphaerotheca fuliginea (second Table 4, 7.8 ppm), 10; with Sphaerotheca fuliginea (second Table 4, 31.3 ppm), 10. The “Foliar Treatment, Protective Effect” value in the test on Sphaerotheca fuliginea (second Table 4, 0.5 ppm) is 0; in the test with Sphaerotheca fuliginea (second Table 4, 2.0 ppm) it was 5 (Disease sign is observed on the leaf in about 30%.); in the test with Sphaerotheca fuliginea (second Table 4, 7.8 ppm), 10; in the test on Sphaerotheca fuliginea (second Table 4, 31.3 ppm), 10. The “Soil Treatment, Protective Effect” value in the test with Sphaerotheca fuliginea (second Table 4, 0.5 ppm) is 0; with Sphaerotheca fuliginea (second Table 4, 2.0 ppm), 0; in the test on Sphaerotheca fuliginea (second Table 4, 7.8 ppm), 0; with Sphaerotheca fuliginea (second Table 4, 31.3 ppm), 0.

In the case of `O[C@@]1(Cc2ccc(Cl)cc2Cl)CCCC[C@H]1n1cncn1` (relative stereo) [Compound 3, cis-1-(2,4-dichlorobenzyl)-2-(1,2,4-triazol-1-yl)cyclohexanol], in the test with Sphaerotheca fuliginea (first Table 4, 125 ppm), the “Protective Index, Foliar Treatment” value came out at 10 and the “Protective Index, Soil Treatment” value is listed as 10.

For the origin of these results see patent US5091539A, “Azolyl cycloalkanol derivatives and agricultural fungicides” (Shionogi & Co., Ltd., priority 1984, dated 1992).
